Reference: the OligoGym collection
HELM strings list units from the 5' end as sugar, base in round brackets, then linkage (d deoxyribose, r ribose, m 2'-O-methyl, p phosphodiester). Strings are as the collection lists them, not checked against the first reports. ss, as = sense and antisense strand; [lna] = locked nucleic acid (LNA); [fl2r] = 2'-fluoro

Details: siRNA
Further: test system not given here.

Substance	target mRNA knockdown
RNA1{[fl2r](C)p.r(U)p.[fl2r](A)p.r(G)p.[fl2r](A)p.r(G)p.[fl2r](G)p.r(A)p.[fl2r](U)p.r(C)p.[fl2r](U)p.r(U)p.[fl2r](G)p.r(A)p.[fl2r](A)p.r(G)p.[fl2r](A)p.r(C)p.[fl2r](C)p.r(T)p.r(T)}|RNA2{[fl2r](G)p.[fl2r](G)p.r(U)p.r(C)p.r(U)p.r(U)p.r(C)p.r(A)p.r(A)p.[fl2r](G)p.r(A)p.r(U)p.r(C)p.r(C)p.r(U)p.r(C)p.r(U)p.r(A)p.[fl2r](G)p.r(T)p.r(T)}$$$RNA1{StrandType:ss}|RNA2{StrandType:as}$	38%
RNA1{[fl2r](C)p.r(U)p.[fl2r](A)p.r(G)p.[fl2r](A)p.r(G)p.[fl2r](G)p.r(A)p.[fl2r](U)p.r(C)p.[fl2r](U)p.r(U)p.[fl2r](G)p.r(A)p.[fl2r](A)p.r(G)p.[fl2r](A)p.r(C)p.r(C)p.r(T)p.r(T)}|RNA2{r(G)p.r(G)p.r(U)p.r(C)p.r(U)p.r(U)p.r(C)p.r(A)p.r(A)p.r(G)p.r(A)p.r(U)p.r(C)p.r(C)p.r(U)p.r(C)p.r(U)p.r(A)p.r(G)p.r(T)p.r(T)}$$$RNA1{StrandType:ss}|RNA2{StrandType:as}$	61%
RNA1{[fl2r](C)p.r(U)p.[fl2r](C)p.r(U)p.[fl2r](C)p.r(C)p.[fl2r](U)p.r(A)p.[fl2r](C)p.r(C)p.[fl2r](U)p.r(U)p.[fl2r](C)p.r(U)p.[fl2r](C)p.r(C)p.[fl2r](U)p.r(C)p.[fl2r](U)p.r(T)p.r(T)}|RNA2{r(A)p.r(G)p.r(A)p.r(G)p.r(G)p.r(A)p.r(G)p.r(A)p.r(A)p.r(G)p.r(G)p.r(U)p.r(A)p.r(G)p.r(G)p.r(A)p.r(G)p.r(A)p.r(G)p.r(T)p.r(T)}$$$RNA1{StrandType:ss}|RNA2{StrandType:as}$	69%
RNA1{[fl2r](C)p.r(U)p.[fl2r](G)p.r(A)p.[fl2r](C)p.r(C)p.[fl2r](G)p.r(G)p.[fl2r](A)p.r(A)p.[fl2r](G)p.r(C)p.[fl2r](G)p.r(C)p.[fl2r](U)p.r(U)p.[fl2r](A)p.r(A)p.[fl2r](A)p.r(T)p.r(T)}|RNA2{r(U)p.r(U)p.r(U)p.[fl2r](A)p.[fl2r](A)p.r(G)p.r(C)p.r(G)p.r(C)p.r(U)p.r(U)p.r(C)p.r(C)p.r(G)p.r(G)p.r(U)p.r(C)p.[fl2r](A)p.r(G)p.r(T)p.r(T)}$$$RNA1{StrandType:ss}|RNA2{StrandType:as}$	59%
RNA1{[fl2r](G)p.m(A)p.[fl2r](C)p.m(G)p.[fl2r](U)p.m(A)p.[fl2r](A)p.m(A)p.[fl2r](C)p.m(G)p.[fl2r](G)p.m(C)p.[fl2r](C)p.m(A)p.[fl2r](C)p.m(A)p.[fl2r](A)p.m(G)p.[fl2r](U)p.m(U)p.[fl2r](C)}|RNA2{[fl2r](A)p.m(C)p.[fl2r](U)p.m(U)p.[fl2r](G)p.m(U)p.[fl2r](G)p.m(G)p.[fl2r](C)p.m(C)p.[fl2r](G)p.m(U)p.[fl2r](U)p.m(U)p.[fl2r](A)p.m(C)p.[fl2r](G)p.m(U)p.[fl2r](C)p.m(G)p.[fl2r](C)}$$$RNA1{StrandType:ss}|RNA2{StrandType:as}$	23.8%
RNA1{[fl2r](G)p.m(A)p.[fl2r](C)p.m(G)p.[fl2r](U)p.m(A)p.[fl2r](A)p.m(A)p.[fl2r](C)p.m(G)p.[fl2r](G)p.m(C)p.[fl2r](C)p.m(A)p.[fl2r](C)p.m(A)p.[fl2r](A)p.m(G)p.[fl2r](U)p.m(U)p.[fl2r](C)}|RNA2{r(A)p.m(C)p.r(U)p.r(U)p.r(G)p.r(U)p.r(G)p.r(G)p.r(C)p.r(C)p.r(G)p.r(U)p.r(U)p.r(U)p.r(A)p.r(C)p.r(G)p.r(U)p.r(C)p.r(G)p.r(C)}$$$RNA1{StrandType:ss}|RNA2{StrandType:as}$	46.2%
RNA1{[fl2r](G)p.m(A)p.[fl2r](C)p.m(G)p.[fl2r](U)p.m(A)p.[fl2r](A)p.m(A)p.[fl2r](C)p.m(G)p.[fl2r](G)p.m(C)p.[fl2r](C)p.m(A)p.[fl2r](C)p.m(A)p.[fl2r](A)p.m(G)p.[fl2r](U)p.m(U)p.[fl2r](C)}|RNA2{r(A)p.r(C)p.[lna](T)p.r(U)p.r(G)p.[lna](T)p.r(G)p.r(G)p.r(C)p.r(C)p.r(G)p.r(U)p.r(U)p.[lna](T)p.r(A)p.r(C)p.r(G)p.[lna](T)p.r(C)p.[lna](G)p.[lna](C)}$$$RNA1{StrandType:ss}|RNA2{StrandType:as}$	1.5%
RNA1{[fl2r](G)p.m(A)p.[fl2r](C)p.m(G)p.[fl2r](U)p.m(A)p.[fl2r](A)p.m(A)p.[fl2r](C)p.m(G)p.[fl2r](G)p.m(C)p.[fl2r](C)p.m(A)p.[fl2r](C)p.m(A)p.[fl2r](A)p.m(G)p.[fl2r](U)p.m(U)p.[fl2r](C)}|RNA2{r(A)p.r(C)p.r(U)p.r(U)p.r(G)p.r(U)p.r(G)p.r(G)p.r(C)p.r(C)p.r(G)p.r(U)p.r(U)p.r(U)p.r(A)p.r(C)p.r(G)p.r(U)p.[lna](C)p.[lna](G)p.r(C)}$$$RNA1{StrandType:ss}|RNA2{StrandType:as}$	84.4%
RNA1{[fl2r](G)p.m(A)p.[fl2r](C)p.m(G)p.[fl2r](U)p.m(A)p.[fl2r](A)p.m(A)p.[fl2r](C)p.m(G)p.[fl2r](G)p.m(C)p.[fl2r](C)p.m(A)p.[fl2r](C)p.m(A)p.[fl2r](A)p.m(G)p.[fl2r](U)p.m(U)p.[fl2r](C)}|RNA2{r(A)p.r(C)p.r(U)p.r(U)p.r(G)p.r(U)p.r(G)p.r(G)p.r(C)p.r(C)p.r(G)p.r(U)p.r(U)p.r(U)p.r(A)p.r(C)p.r(G)p.r(U)p.r(C)p.r(G)p.r(C)}$$$RNA1{StrandType:ss}|RNA2{StrandType:as}$	87.3%
RNA1{[fl2r](G)p.r(A)p.[fl2r](C)p.r(C)p.[fl2r](A)p.r(C)p.[fl2r](G)p.r(A)p.[fl2r](A)p.r(G)p.[fl2r](A)p.r(G)p.[fl2r](U)p.r(U)p.[fl2r](A)p.r(A)p.[fl2r](C)p.r(C)p.[fl2r](C)p.r(T)p.r(T)}|RNA2{r(G)p.r(G)p.r(G)p.r(U)p.r(U)p.r(A)p.r(A)p.r(C)p.r(U)p.r(C)p.r(U)p.r(U)p.r(C)p.r(G)p.r(U)p.r(G)p.r(G)p.r(U)p.r(C)p.r(T)p.r(T)}$$$RNA1{StrandType:ss}|RNA2{StrandType:as}$	51%
RNA1{[fl2r](G)p.r(A)p.[fl2r](G)p.r(U)p.[fl2r](A)p.r(U)p.[fl2r](U)p.r(U)p.[fl2r](C)p.r(C)p.[fl2r](G)p.r(C)p.[fl2r](U)p.r(G)p.[fl2r](G)p.r(A)p.[fl2r](A)p.r(C)p.[fl2r](U)p.r(T)p.r(T)}|RNA2{r(A)p.r(G)p.r(U)p.r(U)p.r(C)p.r(C)p.r(A)p.r(G)p.r(C)p.r(G)p.r(G)p.r(A)p.r(A)p.r(A)p.r(U)p.r(A)p.r(C)p.r(U)p.r(C)p.r(T)p.r(T)}$$$RNA1{StrandType:ss}|RNA2{StrandType:as}$	21%
RNA1{[fl2r](G)p.r(C)p.[fl2r](C)p.r(U)p.[fl2r](C)p.r(U)p.[fl2r](C)p.r(U)p.[fl2r](A)p.r(U)p.[fl2r](C)p.r(C)p.[fl2r](U)p.r(U)p.[fl2r](A)p.r(G)p.[fl2r](C)p.r(U)p.r(U)p.r(T)p.r(T)}|RNA2{r(A)p.r(A)p.r(G)p.r(C)p.r(U)p.r(A)p.[fl2r](A)p.r(G)p.r(G)p.r(A)p.r(U)p.[fl2r](A)p.r(G)p.r(A)p.r(G)p.r(A)p.r(G)p.r(G)p.r(C)p.r(T)p.r(T)}$$$RNA1{StrandType:ss}|RNA2{StrandType:as}$	34%
RNA1{[fl2r](G)p.r(C)p.[fl2r](U)p.r(A)p.[fl2r](C)p.r(C)p.[fl2r](G)p.r(C)p.[fl2r](A)p.r(A)p.[fl2r](C)p.r(C)p.[fl2r](A)p.r(C)p.[fl2r](G)p.r(A)p.[fl2r](G)p.r(C)p.[fl2r](U)p.r(T)p.r(T)}|RNA2{r(A)p.r(G)p.r(C)p.r(U)p.r(C)p.r(G)p.r(U)p.r(G)p.r(G)p.r(U)p.r(U)p.r(G)p.r(C)p.r(G)p.r(G)p.r(U)p.r(A)p.r(G)p.r(C)p.r(T)p.r(T)}$$$RNA1{StrandType:ss}|RNA2{StrandType:as}$	21%
RNA1{[fl2r](G)p.r(C)p.[fl2r](U)p.r(G)p.[fl2r](A)p.r(A)p.[fl2r](C)p.r(U)p.[fl2r](A)p.r(G)p.[fl2r](U)p.r(C)p.[fl2r](G)p.r(A)p.[fl2r](A)p.r(A)p.[fl2r](G)p.r(A)p.[fl2r](A)p.r(T)p.r(T)}|RNA2{r(U)p.r(U)p.r(C)p.r(U)p.r(U)p.r(U)p.r(C)p.r(G)p.[fl2r](A)p.r(C)p.r(U)p.[fl2r](A)p.r(G)p.r(U)p.r(U)p.r(C)p.[fl2r](A)p.r(G)p.r(C)p.r(T)p.r(T)}$$$RNA1{StrandType:ss}|RNA2{StrandType:as}$	49%
RNA1{[fl2r](G)p.r(C)p.[fl2r](U)p.r(G)p.[fl2r](U)p.r(A)p.[fl2r](A)p.r(C)p.[fl2r](C)p.r(U)p.[fl2r](C)p.r(G)p.[fl2r](G)p.r(A)p.[fl2r](G)p.r(A)p.[fl2r](G)p.r(U)p.r(U)p.r(T)p.r(T)}|RNA2{r(A)p.r(A)p.r(C)p.r(U)p.r(C)p.r(U)p.r(C)p.r(C)p.r(G)p.r(A)p.r(G)p.r(G)p.r(U)p.r(U)p.r(A)p.r(C)p.r(A)p.r(G)p.r(C)p.r(T)p.r(T)}$$$RNA1{StrandType:ss}|RNA2{StrandType:as}$	51%
RNA1{[fl2r](G)p.r(C)p.[fl2r](U)p.r(U)p.[fl2r](C)p.r(G)p.[fl2r](G)p.r(A)p.[fl2r](A)p.r(A)p.[fl2r](C)p.r(U)p.[fl2r](G)p.r(G)p.[fl2r](A)p.r(C)p.[fl2r](A)p.r(U)p.[fl2r](C)p.r(T)p.r(T)}|RNA2{[fl2r](G)p.r(A)p.r(U)p.[fl2r](G)p.r(U)p.r(C)p.r(C)p.r(A)p.[fl2r](G)p.r(U)p.r(U)p.r(U)p.r(C)p.r(C)p.[fl2r](G)p.r(A)p.r(A)p.[fl2r](G)p.r(C)p.r(T)p.r(T)}$$$RNA1{StrandType:ss}|RNA2{StrandType:as}$	29%
RNA1{[fl2r](G)p.r(G)p.[fl2r](A)p.r(A)p.[fl2r](G)p.r(A)p.[fl2r](A)p.r(G)p.[fl2r](A)p.r(U)p.[fl2r](A)p.r(G)p.[fl2r](A)p.r(G)p.[fl2r](C)p.r(A)p.[fl2r](U)p.r(C)p.[fl2r](C)p.r(T)p.r(T)}|RNA2{r(G)p.r(G)p.r(A)p.[fl2r](U)p.r(G)p.r(C)p.r(U)p.r(C)p.[fl2r](U)p.r(A)p.r(U)p.r(C)p.r(U)p.r(U)p.r(C)p.r(U)p.r(U)p.r(C)p.r(C)p.r(T)p.r(T)}$$$RNA1{StrandType:ss}|RNA2{StrandType:as}$	13%
